The results in this text go back to patent US20040014030A1, “Enzymatic assay of HIV protease inhibitors” (priority 2002, published 2004).

The assay addresses T1, HIV-1 protease (Human immunodeficiency virus type 1 group M subtype B, UniProt P04585).
T1 construct: the enzyme HIV-1 protease; purchased BACHEM AMERICAS (King of Prussia, Pa.)
As to the kind of experiment: Kinetic parameter determination: hydrolysis of chromogenic substrate by HIV-1 PR monitored at 300 nm. The assay is classed as biochemical. The settings on record: substrate hydrolysis by HIV-1 PR, 25° C., pH 4.9 assay buffer. How it is done:
The synthetic chromogenic substrate, H-His-Lys-Ala-Arg-Val-Leu*Nph-Glu-Ala-Nle-Ser-NH2 (SEQ ID NO:3) and the enzyme HIV-1 protease (0.65 milligrams per milliliter (mg/mL), 16 International Units per milligram (IU/mg)) were purchased from BACHEM AMERICAS (King of Prussia, Pa.).
A stock solution containing 1 mg/mL of the chromogenic substrate in HIV PR assay buffer (50 millimolar (mM) sodium acetate, pH 4.9, 200 mM NaCl, 5 mM diothiothreitol (DTT), 10% (v/v) glycerol) was prepared by dissolving 5 mg chromogenic substrate in 5 mL of assay buffer. A substrate solution at a concentration of 101 micromolar (μM) was prepared in HIV-PR assay buffer from the substrate stock in a sample cup of Roche COBAS FARA. The stock mixture of HIV-1 PR as received was then diluted by 20-fold into this mixture. The hydrolysis of substrate by HIV-1 PR was monitored at 300 nm at 25° C. on a ROCHE DIAGNOSTICS COBAS FARA instrument.
A stock solution containing the chromogenic substrate at a concentration of 3 mg/mL was prepared by dissolving 5 mg chromogenic substrate in 1.67 mL of the assay buffer as described in Example 1. A series of substrate solutions were prepared in the HIV-PR assay buffer over the concentration range of 0-2282 μM. The stock solution of HIV-1 PR was then diluted by 20-fold into HIV PR assay buffer. The hydrolysis of substrate by HIV-1 PR was monitored at 300 nm at 25° C. on a ROCHE DIAGNOSTICS COBAS FARA instrument, as described in Example 1.

Where a SMILES comes first, the peptide text is derived from it.

As to `CCCC[C@H](NC(=O)[C@H](C)NC(=O)[C@H](CCC(=O)O)NC(=O)[C@H](Cc1ccc([N+](=O)[O-])cc1)NC(=O)[C@H](CC(C)C)NC(=O)[C@@H](NC(=O)[C@H](CCCNC(=N)N)NC(=O)[C@H](C)NC(=O)[C@H](CCCCN)NC(=O)[C@@H](N)Cc1c[nH]cn1)C(C)C)C(=O)N[C@@H](CO)C(N)=O` [chromogenic substrate, H-His-Lys-Ala-Arg-Val-Leu*Nph-Glu-Ala-Nle-Ser-NH2] (HELM PEPTIDE1{H.K.A.R.V.L.[O=C([C@H](Cc1ccc([N+](=O)[O-])cc1)N[*:1])[*:2]].E.A.[Nle].S.[am]}$$$$V2.0), the “apparent Vmax” value is 156.81 µmol/mg/min and the apparent kcat worked out at 58.02 s⁻¹. Also, the Michaelis constant (Km) (substrate 0-2282 μM, read-out: apparent Km) turned out to be 67 ± 7.55 µM.
